How the values were obtained:
Androgen receptor = biological target: T1, Androgen receptor (Homo sapiens, UniProt P10275)
T1 sequence (P10275 whole entry): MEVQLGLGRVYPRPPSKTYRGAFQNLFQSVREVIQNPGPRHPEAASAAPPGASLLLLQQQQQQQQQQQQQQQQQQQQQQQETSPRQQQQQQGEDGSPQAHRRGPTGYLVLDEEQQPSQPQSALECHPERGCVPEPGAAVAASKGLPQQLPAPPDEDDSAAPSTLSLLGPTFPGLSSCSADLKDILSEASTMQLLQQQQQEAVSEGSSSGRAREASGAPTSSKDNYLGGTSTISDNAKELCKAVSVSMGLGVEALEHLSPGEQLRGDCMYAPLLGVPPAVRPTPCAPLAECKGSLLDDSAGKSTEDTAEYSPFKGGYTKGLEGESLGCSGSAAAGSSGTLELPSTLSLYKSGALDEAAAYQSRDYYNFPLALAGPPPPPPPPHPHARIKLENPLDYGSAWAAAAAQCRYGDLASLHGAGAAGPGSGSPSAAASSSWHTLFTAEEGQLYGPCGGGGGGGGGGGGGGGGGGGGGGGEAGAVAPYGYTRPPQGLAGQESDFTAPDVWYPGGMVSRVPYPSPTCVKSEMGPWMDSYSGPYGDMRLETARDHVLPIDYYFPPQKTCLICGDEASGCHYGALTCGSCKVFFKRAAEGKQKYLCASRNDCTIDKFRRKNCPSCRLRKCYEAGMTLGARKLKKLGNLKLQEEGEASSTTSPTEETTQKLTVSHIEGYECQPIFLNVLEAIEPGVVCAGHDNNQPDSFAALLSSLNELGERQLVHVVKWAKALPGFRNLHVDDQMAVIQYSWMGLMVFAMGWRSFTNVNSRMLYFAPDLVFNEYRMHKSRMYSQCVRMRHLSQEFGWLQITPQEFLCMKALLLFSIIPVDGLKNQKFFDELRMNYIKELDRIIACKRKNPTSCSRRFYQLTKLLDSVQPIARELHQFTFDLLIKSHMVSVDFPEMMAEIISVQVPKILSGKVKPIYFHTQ

[1] = biological target: Glutamate receptor ionotropic, NMDA 1 (Rattus norvegicus, UniProt P35439)
D(1A) dopamine receptor = D(1A) dopamine receptor (Homo sapiens, UniProt P21728); type: functional, cell-based
Further: assay procedure not described here.

D(1A) dopamine receptor, sequence (P21728 whole entry): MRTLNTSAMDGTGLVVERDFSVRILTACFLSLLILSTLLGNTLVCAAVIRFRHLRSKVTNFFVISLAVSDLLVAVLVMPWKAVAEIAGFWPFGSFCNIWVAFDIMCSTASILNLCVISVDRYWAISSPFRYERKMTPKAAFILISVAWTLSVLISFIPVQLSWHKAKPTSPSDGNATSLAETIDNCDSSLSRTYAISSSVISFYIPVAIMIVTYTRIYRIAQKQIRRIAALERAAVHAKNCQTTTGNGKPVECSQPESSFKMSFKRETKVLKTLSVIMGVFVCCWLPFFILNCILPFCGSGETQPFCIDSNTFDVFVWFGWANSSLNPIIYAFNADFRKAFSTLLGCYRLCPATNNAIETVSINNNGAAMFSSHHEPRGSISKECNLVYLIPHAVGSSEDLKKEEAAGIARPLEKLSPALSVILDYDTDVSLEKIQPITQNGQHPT

Row | AC50 [1] [µM] | AC50 (D(1A) dopamine receptor) [µM] | Molecule | AC50 (Androgen receptor) [µM]
1 | – | – | CN(C)c1ccc(C(=C2C=CC(=[N+](C)C)C=C2)c2ccc(N(C)C)cc2)cc1 [GENTIAN VIOLET] | > 30
2 | > 30 | > 30 | HYDROXOCOBALAMIN | –

— ChEMBL document CHEMBL5291721, “A preclinical secondary pharmacology resource illuminates target-adverse drug reaction associations of marketed drugs” (Nat Commun, 2023)
